Source: article PMC9858543, “Design, synthesis and evaluation of 2, 6, 8-substituted Imidazopyridine derivatives as potent PI3Kα inhibitors” (Journal of Enzyme Inhibition and Medicinal Chemistry, 2023)

Key:
PI3Kα = molecular target: T1, PI3Kα (Homo sapiens, UniProt P42336); assay: In vitro PI3Kα enzymatic assay (ADP-Glo / Kinase-Glo, ATP 25 μM); type: biochemical; conditions: ATP 25 μM; for IC50: mean ± SD of two experiments; for inhibition at 10 µM: PI3Kα, compound 10 μM, mean ± SD of three determinations, read-out: % Inhibition at 10 μM
T1 construct: purchased Invitrogen
T1 sequence (P42336 whole entry): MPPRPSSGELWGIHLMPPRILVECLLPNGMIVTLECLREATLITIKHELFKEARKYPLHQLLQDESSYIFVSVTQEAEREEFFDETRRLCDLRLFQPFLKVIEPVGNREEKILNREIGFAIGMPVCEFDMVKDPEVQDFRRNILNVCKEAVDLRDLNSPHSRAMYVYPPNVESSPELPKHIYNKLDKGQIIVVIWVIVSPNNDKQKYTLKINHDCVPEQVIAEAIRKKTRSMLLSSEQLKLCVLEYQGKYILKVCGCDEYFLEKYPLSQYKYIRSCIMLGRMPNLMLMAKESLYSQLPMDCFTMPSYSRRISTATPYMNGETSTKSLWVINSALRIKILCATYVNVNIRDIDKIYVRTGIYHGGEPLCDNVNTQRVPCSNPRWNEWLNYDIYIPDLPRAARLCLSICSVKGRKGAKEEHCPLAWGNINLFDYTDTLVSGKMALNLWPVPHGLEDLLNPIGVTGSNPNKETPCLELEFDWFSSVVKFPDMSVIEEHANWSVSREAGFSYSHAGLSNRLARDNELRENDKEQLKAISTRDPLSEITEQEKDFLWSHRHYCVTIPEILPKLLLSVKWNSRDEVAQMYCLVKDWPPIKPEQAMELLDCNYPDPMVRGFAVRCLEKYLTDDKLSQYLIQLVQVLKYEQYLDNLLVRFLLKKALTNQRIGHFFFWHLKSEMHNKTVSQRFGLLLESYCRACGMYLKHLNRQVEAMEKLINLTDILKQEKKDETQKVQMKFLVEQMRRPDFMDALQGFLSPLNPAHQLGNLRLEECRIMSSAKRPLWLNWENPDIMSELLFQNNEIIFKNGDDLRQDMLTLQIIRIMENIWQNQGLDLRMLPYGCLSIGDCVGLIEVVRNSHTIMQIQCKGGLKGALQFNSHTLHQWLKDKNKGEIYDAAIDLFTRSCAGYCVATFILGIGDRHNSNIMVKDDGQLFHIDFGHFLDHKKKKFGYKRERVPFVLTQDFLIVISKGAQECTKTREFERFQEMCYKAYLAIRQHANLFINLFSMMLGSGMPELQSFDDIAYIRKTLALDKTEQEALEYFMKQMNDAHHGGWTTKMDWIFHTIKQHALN
T1 sequence (P27986 whole entry partner): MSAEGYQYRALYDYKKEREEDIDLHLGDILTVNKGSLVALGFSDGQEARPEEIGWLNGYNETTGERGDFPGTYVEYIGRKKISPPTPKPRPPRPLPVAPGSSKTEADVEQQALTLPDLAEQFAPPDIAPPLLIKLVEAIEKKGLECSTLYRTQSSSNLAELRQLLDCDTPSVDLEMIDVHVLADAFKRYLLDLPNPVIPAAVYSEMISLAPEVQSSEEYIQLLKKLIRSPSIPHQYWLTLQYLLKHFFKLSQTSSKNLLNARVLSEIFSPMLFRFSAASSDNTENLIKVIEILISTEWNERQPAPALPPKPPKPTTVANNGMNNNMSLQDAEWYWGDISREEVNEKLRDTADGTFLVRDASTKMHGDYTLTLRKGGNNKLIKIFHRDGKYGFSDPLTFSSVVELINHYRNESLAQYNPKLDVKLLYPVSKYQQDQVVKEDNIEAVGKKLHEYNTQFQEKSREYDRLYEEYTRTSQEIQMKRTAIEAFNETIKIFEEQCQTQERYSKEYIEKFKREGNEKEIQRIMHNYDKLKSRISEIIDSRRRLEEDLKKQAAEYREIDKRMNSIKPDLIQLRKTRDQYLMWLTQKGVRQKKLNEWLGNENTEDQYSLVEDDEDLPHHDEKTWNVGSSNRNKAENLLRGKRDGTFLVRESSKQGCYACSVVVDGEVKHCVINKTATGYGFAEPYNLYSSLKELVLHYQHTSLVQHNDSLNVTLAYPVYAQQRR
Method: To screen the inhibitory activity of the target compounds against PI3Kα, the Kinase-Glo™ assay with ATP at 25 μM was utilised with PIK-75 as positive control. We chose to explore the SARs at three positions on the Imidazo[1,2-a]pyridine core. To start with, a set of 8-position modifications were prepared while keeping the morpholinyl amide substituent on 2-position fixed, since it allowed quick structure − activity profiling via coupling reactions of bromide with aryl borates or boronic acids. […] We then turned our attention back to the phenyl substituents.
Briefly, the compound, PI3K enzyme (PI3Kα from Invitrogen), the PIP2 (Life Technologies) substrate, and ATP (25 μM, Sigma) were diluted in kinase buffer to the indicated concentrations. The assay plate was covered and incubated at room temperature for 1 h. Then, the Kinase-Glo reagent (Promega) was added to the PI3Kα plate to stop the reaction, mixed briefly with centrifuge, shaken slowly on the shaker and then equilibrate for 120 min. Finally, add Kinase detection reagent to each well, shake 1 min, equilibrate for 30 min before reading on a plate reader for luminescence. The data were collected on Envision and presented in Excel. IC50 values were calculated from the inhibition curves.

SKOV-3 = assay: Cell proliferation assay (CellTiter-Glo), SKOV-3; type: cell-based; conditions: Homo sapiens, SK-OV-3; 72 h exposure; mean ± SD of two experiments
Method: (§1) Given the desirable enzyme activity profile, these compounds were further assayed for their antiproliferative activities against five independent human tumour cell line collections harbouring PIK3CA mutation, including human ovarian cancer cell line SKOV-3, human breast cancer T47D and MCF-7, human lung cancer H1975 and H460. […] In general, the cellular activity of tested derivatives corrected with their effects on kinase activity.
(§2) All target compounds were evaluated for antiproliferative potency against SKOV-3, T47D,NCI-H1975, NCI-H460,and MCF-7 tumour cell lines using a CellTiter-Glo® Luminescent Cell Viability Assay. The human tumour cell lines used were obtained from the ATCC or Shanghai ZhongQiaoXinZhou Biotech. All the mediums and FBS were Gibco. T47D, H1975 and NCI-H460 tumour cells were cultured in RPMI1640 medium supplemented with 10% FBS. SKOV-3 was cultured in McCoy’s 5 A medium supplemented with 10%FBS. The day before treatment with compounds, cells were seeded at a density of 2000 or 5000 in each well of a 96-well plate. The tumour cells were then treated with 3-fold serial diluted compound or DMSO control in the incubator at 37 °C and 5% CO2 for 3 days, prior to the addition of CellTiter-Glo reagents (Promega) and reading of luminescence using a PerkinElmer Envision plate reader. Data were analysed using GraphPad Prism 7.0.

T47D = assay: Cell proliferation assay (CellTiter-Glo), T47D; type: cell-based; conditions: Homo sapiens, 72 h exposure, mean ± SD of two experiments
Method: as §1, §2

NCI-H1975 = assay: Cell proliferation assay (CellTiter-Glo), NCI-H1975; type: cell-based; conditions: Homo sapiens, 72 h exposure, mean ± SD of two experiments
Method: as §1, §2

NCI-H460 = assay: Cell proliferation assay (CellTiter-Glo), NCI-H460; type: cell-based; conditions: Homo sapiens, 72 h exposure, mean ± SD of two experiments
Method: as §1, §2

MCF-7 = assay: Cell proliferation assay (CellTiter-Glo), MCF-7; type: cell-based; conditions: Homo sapiens, MCF7; 72 h exposure; mean ± SD of two experiments
Method: as §1, §2

SMILES: COc1ncc(-c2cc(C)cn3cc(C(=O)NCCN4CCOCC4)nc23)cc1NS(=O)(=O)c1ccc(F)cc1 [Compound 40, 8–(5-((4-Fluorophenyl)sulfonamido)-6-methoxypyridin-3-yl)-6-methyl-N-(2-morpholinoethyl)Imidazo[1,2-a]pyridine-2-carboxamide]
- IC50 (PI3Kα): 0.5 ± 0.11 µM
- inhibition at 10 µM (PI3Kα): > 85%
- IC50 (SKOV-3): 25.5 ± 3.9 µM
- IC50 (T47D): 12.5 ± 1.8 µM
- IC50 (NCI-H1975): 41.4 ± 3.4 µM
- IC50 (NCI-H460): 21.8 ± 1.9 µM
- IC50 (MCF-7): 7.6 ± 0.5 µM

SMILES: COc1ncc(-c2cc(C)cn3cc(C(=O)N4CCCC4)nc23)cc1NS(=O)(=O)c1ccc(F)cc1F [Compound 36, 2,4-Difluoro-N-(2-methoxy-5–(6-methyl-2-(pyrrolidine-1-carbonyl)Imidazo[1,2-a]pyridin-8-yl)pyridin-3-yl)benzenesulfonamide]
- IC50 (PI3Kα): 1.12 ± 0.15 µM
- inhibition at 10 µM (PI3Kα): > 85%
- IC50 (SKOV-3): 35.3 ± 4.2 µM
- IC50 (T47D): 15.9 ± 1.5 µM
- IC50 (NCI-H1975): > 50 µM
- IC50 (NCI-H460): 30.2 ± 3.1 µM
- IC50 (MCF-7): 8.1 ± 0.8 µM

SMILES: Cc1nc(NC(=O)N2CCC[C@H]2C(N)=O)sc1-c1ccnc(C(C)(C)C(F)(F)F)c1 [Alpelisib, reference compound]
- IC50 (SKOV-3): 9.7 ± 0.7 µM
- IC50 (T47D): 0.46 ± 0.05 µM
- IC50 (NCI-H1975): 2.7 ± 0.2 µM
- IC50 (NCI-H460): 8.9 ± 0.7 µM
- IC50 (MCF-7): 2.2 ± 0.3 µM
